Assays:
[1] = system: nitrosamine-induced cancer cells of the pancreas; test: N2 pulsed laser spectro-fluorometry of removed organs after administration to tumour-bearing hamsters; type: in vivo, golden hamsters; conditions: for N2 pulsed laser spectro-fluorometry, wavelengths calculated using the NADH peak wavelength of 470 nm as the reference: sodium compounds, organs removed 24 hours after administration, N2 337 nm laser, 600-900 nm; for accumulation in cancer cells and other organs (N2 pulsed laser spectro-fluorometry): 5 mg in 1 ml physiological saline
Procedure: Five mg of the test drug sodium 9-desoxo-9-hydroxy pheophorbide diluted in physiological saline (1 ml) was administered (1 ml) to golden hamsters (5 each for a group) 14-21 days after transplantation of nitrosamine-induced cancer cells of the pancreas, after which cancer cells and other organs were removed. N2-pulsed laser (N2 337 nm, 2 ns 400-1000 nm) was irradiated to each organ thus obtained to measure N2 pulsed laser spectro-fluorometry.
N2 pulsed laser spectro-fluorometry of each removed organ was measured 24 hours and 48 hours afterwards to investigate the wavelengths of 600 to 900 nm based on the peak wavelengths of NADH of 470 nm.
Golden hamsters (5 per one group) 14-21 days after transplantation of nitrosamine-induced cancer cells of the pancreas were administered 5 mg each of sodium 2-desethenyl-2-(1-hydroxyethyl) pheophorbide (sodium salt of (2)), sodium 2-desethynyl-2-(1-hydroxyethyl)-9-desoxo-9-hydroxy pheophorbide (sodium salt (3)), sodium 2-desethenyl-2-(1-acetyloxyethyl)-9-desoxo-9-acetyloxy pheophorbide (sodium salt of (4)), sodium ethylene glycol mono-10b-pheophorbate (sodium salt of (8)), disodium ethylene glycol di-10b-pheophorbate (sodium salt of (10)) and sodium N-phenylalanine 10b-methyl pheophorbid amide (sodium salt of (9)) respectively diluted with physiological saline (1 ml). Cancer cells and other organs were removed, irradiated with N2-pulsed laser (N2, 337 nm, 2 ns 400-1000 nm) to measure N2 pulsed laser spectro fluorometry. Using the. NADH peak wavelength of 470 nm as the reference, wavelengths in the range of from 600-900 nm were studied.
Various organs were removed 24 hours after administration and their N2 pulsed laser spectro-fluorometry was measured.

leukemic Molt 4 Cell = test: Biochemiluminescence by single photoncounter system after laser irradiation (destruction of cancer cells); type: cell-based; conditions: Homo sapiens, 100 µg/2 ml, incubated 24 hours at 37°C, He-Ne laser 630 nm, 10 min, 20 mW, read-out: cancer cells destroyed
Procedure: Sodium 9-desoxo-9-hydroxy pheophorbide dissolved in physiological saline of respective concentrations (25 µg/2 ml, 50 µg/2 ml, […]) was added to leukemic Molt 4 Cell ([…] Cells) and the resultant product was incubated for 24 hours at 37°C.
Each incubated cell thus obtained was irradiated with laser (He-Ne gas, 630 nm, 10 min, 20 mW) and trace biochemiluminescence was measured by single photoncounter system.
Intensity of biochemiluminescence substantially correponds to the degree of destructive effect on cancer cells and thus by studying the biochemiluminescence by single photoncounter system, it is possible to predict the destructive effect on cancer cells.
Leukemic Molt 4 cell ([…] cells) was added with physiological saline containing sodium 2- desethenyl-2-(1-hydroxyethyl) pheophorbide (sodium salt of (2)) in respective concentrations ([…], 100 µg/2 ml) and then incubated (37°C, 24 hours). Incubated cells each were irradiated with laser ([…], 630 nm, 10 min, 20 mW) to investigate generation of biochemiluminescence by single photoncounter system by measuring biochemiluminescence; The intensity of biochemiluminescence by single photoncounter system substantially corresponds to the degree of destruction of the cancer cells. […]

| Compound | N2 pulsed laser spectro-fluorometry, wavelengths calculated using the NADH peak wavelength of 470 nm as the reference [1] | further results |
| --- | --- | --- |
| C=Cc1c(C)c2cc3nc(c4c5[nH]c(cc6nc(cc1[nH]2)C(C)=C6CC)c(C)c5C(=O)C4C(=O)NC(Cc1ccccc1)C(=O)O)C(CCC(=O)OC)C3C (stereo not shown) [N-phenylalanine 10b-methylpheophorbidamide] | 0.75 |  |
| CCC1=C(C)c2cc3[nH]c(cc4nc(c5c6[nH]c(cc1n2)c(C)c6C(=O)C5C(=O)OC)C(CCC(=O)O)C4C)c(C)c3C(C)O (stereo not shown) [2-desethenyl-2-(1-hydroxyethyl)-pheophorbide] | 1.90 | cytotoxicity at 50 µg/mL (leukemic Molt 4 Cell): > 95% |
| Ethylene glycol di-10b-2-desethenyl-2-(1-hydroxyethyl)-pheophorbate | 2.50 |  |
| 9-Desoxo-9-hydroxy-pheophorbide C | 0.32 |  |
| C=Cc1c(C)c2cc3nc(c4c5[nH]c(cc6nc(cc1[nH]2)C(C)=C6CC)c(C)c5C(OC(C)=O)C4C(=O)OC)C(CCC(=O)O)C3C (stereo not shown) [9-Desoxo-9-acetyloxy-pheophorbide, 9-desoxo-9-acetyloxy-pheophorbide] | 0.89 |  |
| C=Cc1c(C)c2cc3nc(c4c5[nH]c(cc6nc(cc1[nH]2)C(C)=C6CC)c(C)c5C(=O)C4C(=O)OCCOC(=O)C1C(=O)c2c(C)c4cc5nc(cc6[nH]c(cc7nc(c1c2[nH]4)C(CCC(=O)O)C7C)c(C)c6C=C)C(C)=C5CC)C(CCC(=O)O)C3C (stereo not shown) [Ethylene glycol di-10b-pheophorbate (10), ethylene glycol di-10b-pheophorbate] | 2.78 |  |
| CCC1=C(C)c2cc3[nH]c(cc4nc(c5c6[nH]c(cc1n2)c(C)c6C(O)C5C(=O)OC)C(CCC(=O)O)C4C)c(C)c3C(C)OC(C)=O (stereo not shown) [2-Desethenyl-2-(1-acetyloxyethyl)-9-desoxo-9-hydroxy-pheophorbide] | 0.95 |  |
| C=Cc1c(C)c2cc3nc(c4c5[nH]c(cc6nc(cc1[nH]2)C(C)=C6CC)c(C)c5C(=O)C4C(=O)OCCO)C(CCC(=O)O)C3C (stereo not shown) [ethylene glycol mono-10b-pheophorbate] | 1.72 |  |
| Monoacetylethylene glycol mono-10b-9-desoxo-9-hydroxy-pheophorbate | 1.20 |  |
| CCC1=C(C)c2cc3[nH]c(cc4nc(c5c6[nH]c(cc1n2)c(C)c6C(O)C5C(=O)OC)C(CCC(=O)O)C4C)c(C)c3C(C)O (stereo not shown) [2-desethenyl-2-(1-hydroxyethyl)-9-desoxo-9-hydroxy-pheophorbide] | 3.13 |  |
| C=Cc1c(C)c2cc3nc(c4c5[nH]c(cc6nc(cc1[nH]2)C(C)=C6CC)c(C)c5C(=O)C4C(=O)OC)C(CCC(=O)O)C3C (stereo not shown) [Pheophorbide (1), pheophorbide] | 0.78 |  |
| C=Cc1c(C)c2cc3nc(c4c5[nH]c(cc6nc(cc1[nH]2)C(C)=C6CC)c(C)c5C(O)C4C(=O)OCCOC(=O)C1c2c4nc(cc5[nH]c(cc6nc(cc7[nH]c2c(c7C)C1O)C(CC)=C6C)c(C=C)c5C)C(C)C4CCC(=O)O)C(CCC(=O)O)C3C (stereo not shown) [Ethylene glycol di-10b-9-desoxo-9-hydroxypheophorbate] | 2.50 |  |
| C=Cc1c(C)c2cc3nc(c4c5[nH]c(cc6nc(cc1[nH]2)C(C)=C6CC)c(C)c5C(=O)C4)C(CCC(=O)O)C3C (stereo not shown) [Pyropheophorbide, reference compound] | 0.25 |  |
| C=Cc1c(C)c2cc3nc(c4c5[nH]c(cc6nc(cc1[nH]2)C(C)=C6CC)c(C)c5C(O)C4C(=O)OCCO)C(CCC(=O)O)C3C (stereo not shown) [Ethylene glycol mono-10b-9-desoxo-9-hydroxy-pheophorbate] | 2.10 |  |
| C=Cc1c(C)c2cc3nc(c4c5[nH]c(cc6nc(cc1[nH]2)C(C)=C6CC)c(C)c5C(O)C4)C(CCC(=O)O)C3C (stereo not shown) [9-Desoxo-9-hydroxy-pyropheophorbide] | 0.98 |  |
| C=Cc1c(C)c2cc3nc(c4c5[nH]c(cc6nc(cc1[nH]2)C(C)=C6CC)c(C)c5C(O)C4C(=O)OC)C(CCC(=O)O)C3C (stereo not shown) [9-Desoxo-9-hydroxy-pheophorbate (11), 9-desoxo-9-hydroxy-pheophorbide] | 0.93 | accumulation in cancer cells and other organs (N2 pulsed laser spectro-fluorometry) ([1]; 24 hours after administration): generally found in organs; accumulation in cancer cells and other organs (N2 pulsed laser spectro-fluorometry) ([1]; 48 hours after administration): markedly accumulated in cancer cells alone but not in other cells; cytotoxicity at 50 µg/mL (leukemic Molt 4 Cell): > 95% |
| C=Cc1c(C)c2cc3nc(c4c5[nH]c(cc6nc(cc1[nH]2)C(C)=C6CC)c(C)c5C(O)C4C(=O)NC(Cc1ccccc1)C(=O)O)C(CCC(=O)OC)C3C (stereo not shown) [N-Phenylalanine 10b-9-desoxo-9-hydroxy-methylpheophorbidamide] | 0.73 |  |
| CCC1=C(C)c2cc3[nH]c(cc4nc(c5c6[nH]c(cc1n2)c(C)c6C(OC(C)=O)C5C(=O)OC)C(CCC(=O)O)C4C)c(C)c3C(C)OC(C)=O (stereo not shown) [2-Desethenyl-2-(1-acetyloxyethyl)-9-desoxo-9-acetyloxypheophorbide] | 0.48 |  |
| Monoacetylethylene glycol mono-10b-9-desoxo-9-acetyloxy-pheophorbate | 0.85 |  |
| Ethylene glycol di-10b-2-desethenyl-2-(1-hydroxyethyl)-9-desoxo-9-hydroxy-pheophorbate | 1.80 |  |
| C=Cc1c(C)c2cc3nc(c4c5[nH]c(cc6nc(cc1[nH]2)C(C)=C6CC)c(C)c5C(=O)C4C(=O)OCCOC(C)=O)C(CCC(=O)O)C3C (stereo not shown) [Monoacetylethylene glycol mono-10b-pheophorbate] | 1.30 |  |
